pIC50: −log10 of the molar value. Some results are limits rather than exact numbers.

This assay has as its system MCF7. The assay can be described thus: Cytotoxicity against human MCF7 cells by MTT assay. Type of assay: functional, cell-based.

Usually pIC50 stands for the negative decadic logarithm of the IC50, by convention in mol/L. A low value points to a large IC50. In the case of `CC1CC[C@@]2(OC1)O[C@H]1C[C@H]3[C@@H]4CC=C5C[C@@H](O[C@@H]6O[C@H](CO)[C@H](O[C@@H]7O[C@H](CO)[C@@H](O)[C@H](O)[C@H]7O[C@@H]7O[C@H](CO)[C@@H](O)[C@H](O)[C@H]7O)[C@H](O)[C@H]6O)CC[C@]5(C)[C@H]4CC[C@]3(C)[C@H]1[C@@H]2C` (mixture of isomers), the pIC50 is 4.61.

Take `CC(=O)O[C@@H]1C[C@H](O[C@@H]2O[C@H](C)[C@H](O[C@@H]3O[C@H](CO)[C@@H](O)[C@H](O)[C@H]3O[C@@H]3O[C@H](CO)[C@@H](O)[C@H](O)[C@H]3O)[C@H](O)[C@H]2O)CC2=CC[C@H]3[C@@H]4C[C@@H]5O[C@@]6(OC[C@@H](C)[C@@H](O)[C@@H]6O)[C@@H](C)[C@@H]5[C@@]4(C)CC[C@@H]3[C@]21C`: the negative-log IC50 (pIC50) was less than 4.00.
